Measured values as given in US7960377B2 (priority 2008, dated 2011).
Where two headings read alike, the source gives them in different places.

Columns and labels:
Assay in all cases: cell-based
human CB2 receptor = human CB2 receptor (Homo sapiens, UniProt P34972); assay type: cell-based
human CB1 receptor = human CB1 receptor (Homo sapiens, UniProt P21554)
rat CB2 receptor = molecular target: T1, rat CB2 receptor (Rattus norvegicus, UniProt Q9QZN9); assay type: cell-based
T1 sequence (Q9QZN9 1-360): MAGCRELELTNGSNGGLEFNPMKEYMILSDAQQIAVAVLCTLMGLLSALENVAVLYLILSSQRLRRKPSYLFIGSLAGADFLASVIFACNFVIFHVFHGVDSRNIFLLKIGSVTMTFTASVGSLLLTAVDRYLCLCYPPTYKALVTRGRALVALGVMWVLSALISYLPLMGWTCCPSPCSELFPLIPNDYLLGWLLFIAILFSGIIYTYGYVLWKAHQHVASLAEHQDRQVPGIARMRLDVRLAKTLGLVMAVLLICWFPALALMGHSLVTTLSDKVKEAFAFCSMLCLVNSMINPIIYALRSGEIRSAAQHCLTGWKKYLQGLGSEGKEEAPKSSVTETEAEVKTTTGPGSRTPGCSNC

[1] = change in intracellular cAMP, CHO-K1 hCB2 cells, class AR, read-out: EC50 values for human CB2 receptor
[2] = asterisk at the compound number

Chain of human CB1 receptor (P21554 whole entry): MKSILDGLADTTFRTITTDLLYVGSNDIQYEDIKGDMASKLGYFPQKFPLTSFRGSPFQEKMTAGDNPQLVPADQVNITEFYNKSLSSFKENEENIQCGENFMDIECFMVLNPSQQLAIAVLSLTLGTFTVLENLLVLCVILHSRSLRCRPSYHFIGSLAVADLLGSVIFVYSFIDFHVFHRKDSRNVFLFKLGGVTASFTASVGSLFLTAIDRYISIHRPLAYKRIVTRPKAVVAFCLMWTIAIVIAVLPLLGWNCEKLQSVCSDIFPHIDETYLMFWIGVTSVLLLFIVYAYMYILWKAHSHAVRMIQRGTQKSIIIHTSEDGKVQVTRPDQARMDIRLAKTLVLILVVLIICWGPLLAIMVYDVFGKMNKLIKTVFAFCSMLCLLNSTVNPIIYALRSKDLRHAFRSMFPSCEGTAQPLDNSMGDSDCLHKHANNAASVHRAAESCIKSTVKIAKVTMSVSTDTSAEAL
Chain of human CB2 receptor (P34972 whole entry): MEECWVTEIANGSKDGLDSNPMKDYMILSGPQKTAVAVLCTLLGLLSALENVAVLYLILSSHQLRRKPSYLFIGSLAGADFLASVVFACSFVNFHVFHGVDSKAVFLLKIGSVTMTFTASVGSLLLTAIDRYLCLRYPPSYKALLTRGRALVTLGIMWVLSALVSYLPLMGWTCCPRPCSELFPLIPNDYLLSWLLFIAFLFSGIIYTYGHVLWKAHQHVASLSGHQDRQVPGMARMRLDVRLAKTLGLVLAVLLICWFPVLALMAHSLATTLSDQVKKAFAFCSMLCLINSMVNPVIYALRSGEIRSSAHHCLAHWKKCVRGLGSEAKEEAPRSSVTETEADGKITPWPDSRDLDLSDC

| Structure (SMILES) | EC50 (human CB1 receptor) | EC50 (rat CB2 receptor) | other results |
| --- | --- | --- | --- |
| O=C(c1cnc2c(c1)N(S(=O)(=O)c1ccc(Cl)c(Cl)c1)CCO2)N1CC(O)C1 [Example 125, (1-(3,4-dichlorophenyl-sulfonyl)-2,3-dihydro-1H-pyrido[2,3-b][1,4]oxazin-7-yl)(3-hydroxyazetidin-1-yl)methanone] | > 30 µM | – | EC50 (human CB2 receptor; [1]): > 30 µM |
| O=S(=O)(c1ccc(C(F)(F)F)cc1)N1CCOc2ncc(-c3ncc(-c4ccccc4)[nH]3)cc21 [Example 226, 7-(5-phenyl-1H-imidazol-2-yl)-1-(4-(trifluoromethyl)phenylsulfonyl)-2,3-dihydro-1H-pyrido[2,3-b][1,4]oxazine] | – | – | EC50 (human CB2 receptor; [1]): > 30 µM |
| CC(C)(C)NC(=O)c1cnc2c(c1)N(S(=O)(=O)c1cc(Cl)cc(Cl)c1)CCO2 [Example 53, N-tert-butyl-1-(3,5-dichlorophenylsulfonyl)-2,3-dihydro-1H-pyrido[2,3-b][1,4]oxazine-7-carboxamide] | > 30 µM | – | EC50 (human CB2 receptor): > 30 µM |
| Cn1cnc(S(=O)(=O)N2CCOc3ncc(C(=O)NC(C)(C)C)cc32)c1 [Example 30, N-tert-butyl-1-(1-methyl-1H-imidazol-4-ylsulfonyl)-2,3-dihydro-1H-pyrido-[2,3-b][1,4]oxazine-7-carboxamide] | > 30 µM | – | EC50 (human CB2 receptor; [1]): > 30 µM |
| CC(C)(C)NC(=O)c1cnc2c(c1)N(S(=O)(=O)N1CCc3ccccc3C1)CCO2 [Example 188, N-tert-butyl-1-(3,4-dihydroisoquinolin-2(1H)-ylsulfonyl)-2,3-dihydro-1H-pyrido[2,3-b][1,4]oxazine-7-carboxamide] | – | – | EC50 (human CB2 receptor): > 30 µM; inverse agonist mark, human CB1 receptor (human CB1 receptor; [2]): 152, 154, 155, 165, 184, 185, 187, 188*, 212, 214, 217, 227 |
| CC(C)(C)NC(=O)c1cnc2c(c1)N(S(=O)(=O)c1ccc(C(F)(F)F)cc1)CCO2 [Example 26, N-tert-butyl-1-(4-(trifluoromethyl)phenylsulf-onyl)-2,3-dihydro-1H-pyrido[2,3-b][1,4]oxazine-7-carboxamide] | > 30 µM | ≤ 0.03 µM | – |
| O=C(NC1CCCC1)c1noc(-c2cnc3c(c2)N(S(=O)(=O)c2ccc(F)cc2)CCO3)n1 [Example 213, N-cyclopentyl-5-(1-(4-fluorophenylsulfonyl)-2,3-dihydro-1H-pyrido[2,3-b][1,4]oxazin-7-yl)-1,2,4-oxadiazole-3-carboxamide] | – | – | inverse agonist mark, human CB2 receptor (human CB2 receptor; [2]): 175, 178, 179, 181, 198, 204, 205, 213*, 214, 215, 216, 219, 220, |
| CC(C)(C)NC(=O)c1cnc2c(c1)N(S(=O)(=O)N1CCOCC1)CCO2 [Example 140, N-tert-butyl-1-(morpholinosulfonyl)-2,3-dihydro-1H-pyrido[2,3-b][1,4]oxazine-7-carboxamide] | > 30 µM | ≤ 0.03 µM | – |
| O=C(NC1CCCC1)c1cnc2c(c1)N(S(=O)(=O)c1cccc(F)c1)CCO2 [Example 21, N-cyclopentyl-1-(3-fluorophenylsulfonyl)-2,3-dihydro-1H-pyrido[2,3-b][1,4]oxazine-7-carboxamide] | > 30 µM | ≤ 0.03 µM | – |
| CC1CCN(S(=O)(=O)N2CCOc3ncc(C(=O)NC(C)(C)C)cc32)CC1 [Example 170, N-tert-butyl-1-(4-methylpiperidin-1-ylsulfonyl)-2,3-dihydro-1H-pyrido[2,3-b][1,4]oxazine-7-carboxamide] | > 30 µM | ≤ 0.03 µM | – |
| COc1ccc(S(=O)(=O)N2CCOc3ncc(C(=O)NC(C)(C)CO)cc32)c(F)c1 [Example 103, 1-(2-fluoro-4-methoxyphenylsulfonyl)-N-(1-hydroxy-2-methylpropan-2-yl)-2,3-dihydro-1H-pyrido[2,3-b][1,4]oxazine-7-carboxamide] | > 30 µM | ≤ 0.03 µM | – |
| CC(C)(C)NC(=O)c1cnc2c(c1)N(S(=O)(=O)c1cccc(Cl)c1)CCO2 [Example 89, N-tert-butyl-1-(3-chlorophenylsulfonyl)-2,3-dihydro-1H-pyrido[2,3-b][1,4]oxazine-7-carboxamide] | > 30 µM | ≤ 0.03 µM | – |
| CC(C)(CO)NC(=O)c1cnc2c(c1)N(S(=O)(=O)N1CC(F)(F)C1)CCO2 [Example 195, 1-(3,3-difluoroazetidin-1-ylsulfonyl)-N-(1-hydroxy-2-methylpropan-2-yl)-2,3-dihydro-1H-pyrido[2,3-b][1,4]oxazine-7-carboxamide] | – | – | EC50 (human CB2 receptor): > 30 µM |
| CC(C)(CO)NC(=O)c1cnc2c(c1)N(S(=O)(=O)c1ccc(F)c(Cl)c1)CCO2 [Example 99, 1-(3-chloro-4-fluorophenylsulfonyl)-N-(1-hydroxy-2-methylpropan-2-yl)-2,3-dihydro-1H-pyrido[2,3-b][1,4]oxazine-7-carboxamide] | > 30 µM | ≤ 0.03 µM | – |
| CC(C)(C)NC(=O)c1cnc2c(c1)N(S(=O)(=O)c1cccc(C(F)(F)F)c1)CCO2 [Example 83, N-tert-butyl-1-(3-(trifluoromethyl)phenylsulf-onyl)-2,3-dihydro-1H-pyrido[2,3-b][1,4]oxazine-7-carboxamide] | > 30 µM | ≤ 0.03 µM | – |
| CC(C)(CO)CNC(=O)c1cnc2c(c1)N(S(=O)(=O)N1CCC(F)CC1)CCO2 [Example 169, 1-(4-fluoropiperidin-1-ylsulfonyl)-N-(3-hydroxy-2,2-dimethylpropyl)-2,3-dihydro-1H-pyrido[2,3-b][1,4]oxazine-7-carboxamide] | > 30 µM | ≤ 0.03 µM | – |
| CC(C)(CN1CCOCC1)NC(=O)c1cnc2c(c1)N(S(=O)(=O)c1ccc(C(F)(F)F)cc1)CCO2 [Example 46, N-(2-methyl-1-morpholinopropan-2-yl)-1-(4-(trifluoromethyl)phenylsulfonyl)-2,3-dihydro-1H-pyrido[2,3-b][1,4]oxazine-7-carboxamide] | > 30 µM | ≤ 0.03 µM | – |
| CC(C)(CN1CCOCC1)NC(=O)c1cnc2c(c1)N(S(=O)(=O)c1ccc(Cl)cc1F)CCO2 [Example 113, 1-(4-chloro-2-fluorophenylsulfonyl)-N-(2-methyl-1-morpholinopropan-2-yl)-2,3-dihydro-1H-pyrido[2,3-b][1,4]oxazine-7-carboxamide] | > 30 µM | ≤ 0.03 µM | – |
| CC(C)(C)NC(=O)c1cnc2c(c1)N(S(=O)(=O)c1cccc(F)c1)CCO2 [Example 20, N-tert-butyl-1-(3-fluorophenylsulfonyl)-2,3-dihydro-1H-pyrido[2,3-b][1,4]oxazine-7-carboxamide] | > 30 µM | ≤ 0.03 µM | – |
| O=C(N[C@@H]1CCC[C@H]1O)c1cnc2c(c1)N(S(=O)(=O)c1ccc(Cl)c(Cl)c1)CCO2 [Example 133, 1-(3,4-dichlorophenyl-sulfonyl)-N-((1R,2R)-2-hydroxycyclopentyl)-2,3-dihydro-1H-pyrido[2,3-b][1,4]oxazine-7-carboxamide] | > 30 µM | ≤ 0.03 µM | – |
| CC(C)(C)CC(C)(C)NC(=O)c1cnc2c(c1)N(S(=O)(=O)c1ccc(C(F)(F)F)cc1)CCO2 [Example 65, 1-(4-(trifluoromethyl)-phenylsulfonyl)-N-(2,4,4-trimethylpentan-2-yl)-2,3-dihydro-1H-pyrido[2,3-b][1,4]oxazine-7-carboxamide] | > 30 µM | ≤ 0.03 µM | – |
| CC(C)CNS(=O)(=O)N1CCOc2ncc(C(=O)NCC(C)(C)CO)cc21 [Example 182, N-(3-hydroxy-2,2-dimethylpropyl)-1-(N-isobutylsulfamoyl)-2,3-dihydro-1H-pyrido[2,3-b][1,4]oxazine-7-carboxamide] | > 30 µM | ≤ 0.03 µM | – |
| CCOC(=O)C1(NC(=O)c2cnc3c(c2)N(S(=O)(=O)c2ccc(C(F)(F)F)cc2)CCO3)CC1 [Example 70, ethyl 1-(1-(4-(trifluoromethyl)phenylsulf-onyl)-2,3-dihydro-1H-pyrido[2,3-b][1,4]oxazine-7-carboxamido)-cyclopropanecarboxylate] | > 30 µM | ≤ 0.03 µM | – |
| Cc1ccc(S(=O)(=O)N2CCOc3ncc(C(=O)NC(C)(C)C)cc32)s1 [Example 59, N-tert-butyl-1-(5-methylthiophen-2-ylsulfonyl)-2,3-dihydro-1H-pyrido[2,3-b][1,4]oxazine-7-carboxamide] | > 30 µM | ≤ 0.03 µM | – |
| O=S(=O)(c1ccccc1)N1CCOc2ncc(-c3nnc(-c4ccccc4)o3)cc21 [Example 211, 7-(5-phenyl-1,3,4-oxadiazol-2-yl)-1-(phenylsulfonyl)-2,3-dihydro-1H-pyrido[2,3-b][1,4]oxazine] | > 30 µM | – | inverse agonist mark, rat CB2 receptor (rat CB2 receptor; [2]): 181, 188, 189, 190, 195, 200, 201, 202, 204, 211*, 214*, 220, 221, |
| O=C(NC1CCC1)c1cnc2c(c1)N(S(=O)(=O)c1ccc(Cl)c(Cl)c1)CCO2 [Example 137, N-cyclobutyl-1-(3,4-dichlorophenylsulfonyl)-2,3-dihydro-1H-pyrido[2,3-b][1,4]oxazine-7-carboxamide] | > 30 µM | ≤ 0.03 µM | – |
| CC(C)(C)NC(=O)c1cnc2c(c1)N(S(=O)(=O)c1ccc(OC(F)(F)F)cc1)CCO2 [Example 48, N-tert-butyl-1-(4-(trifluoromethoxy)phenyl-sulfonyl)-2,3-dihydro-1H-pyrido[2,3-b][1,4]oxazine-7-carboxamide] | > 30 µM | ≤ 0.03 µM | – |
| CC(C)CNS(=O)(=O)N1CCOc2ncc(C(=O)NC(C)(C)C)cc21 [Example 180, N-tert-butyl-1-(N-isobutylsulfamoyl)-2,3-dihydro-1H-pyrido[2,3-b][1,4]oxazine-7-carboxamide] | > 30 µM | ≤ 0.03 µM | – |
| CC1(C)N=C(c2cnc3c(c2)N(S(=O)(=O)c2ccc(C(F)(F)F)cc2)CCO3)NO1 [Example 223, 7-(5,5-dimethyl-2,5-dihydro-1,2,4-oxadiazol-3-yl)-1-(4-(trifluoromethyl)phenylsulfonyl)-2,3-dihydro-1H-pyrido[2,3-b][1,4]oxazine] | > 30 µM | ≤ 0.03 µM | – |
